Laboratory results published in patent US20130280187A1, “Compositions and Methods for Improving the Appearance of Facial Pores” (THE PROCTER & GAMBLE COMPANY, priority 2012, published 2013).
Where “and” joins values, the source holds several entries; their conditions need not be identical. Identical values can stand only once.

Legend:
procollagen I = experiment: In vitro skin biomarker test, procollagen I ELISA in MatTek human skin equivalent; assay type: cell-based; conditions: average of cultures, 24 hours after treatment; Glyco-Repair 3% topical, TGF-b 2 ng/mL in media
Experimental: (§1) The model used in the test is a MatTek™ brand human skin equivalent available from the MatTek Corporation, which is a full thickness culture system that emulates normal human skin properties and function. The MatTek™ brand skin model contains a three-dimensional, highly differentiated human epidermis with 8-12 cell layers including basal, spinous, granular and stratum corneum layers. The epidermis is grown above a human dermal fibroblast-containing collagen matrix. The skin model is configured to permit the topical application of test materials to the stratum corneum surface of the model. The skin model cultures are supplied in 24-well plate. Each well of the plate includes a snap-well fitting and the skin culture in a media-supplemented agarose gel.
(§2) Prior to testing, the skin model cultures are examined for visual defects and equilibrated overnight at 37° C., 5% CO2, and 95% RH. The skin cultures were transferred to fresh 24-well plates by removing the snap-well fitting along with the skin culture and placing it in a well of the new plate. […]
(§3) Twenty-four hours after treatment, the skin cultures were removed from the incubator and visually inspected for defects (e.g., to see if media leaked up through the culture insert). […] The supernatant was collected and analyzed with a Micro BCA kit to quantitate protein concentration. […]

hyalauronic acid = experiment: In vitro skin biomarker test, hyalauronic acid ELISA in MatTek human skin equivalent; assay type: cell-based; conditions: 24 hours after treatment, Glyco-Repair 3% topical, TGF-b 2 ng/mL in media
Experimental: as §1, §2, §3

## transforming growth factor beta [TGF-b]
Procollagen I
  Avg Normalized Protein (procollagen I): 29.8
Hyalauronic acid; average of cultures
  Avg (normalized protein, hyalauronic acid): 2.8
Hyalauronic acid; single skin cultures
  HA: 562 ng/mL and 480 ng/mL and 598 ng/mL and 545 ng/mL and 568 ng/mL
